Bounds are passed on as bounds.

T1 sequence (F1MGM3 1-403): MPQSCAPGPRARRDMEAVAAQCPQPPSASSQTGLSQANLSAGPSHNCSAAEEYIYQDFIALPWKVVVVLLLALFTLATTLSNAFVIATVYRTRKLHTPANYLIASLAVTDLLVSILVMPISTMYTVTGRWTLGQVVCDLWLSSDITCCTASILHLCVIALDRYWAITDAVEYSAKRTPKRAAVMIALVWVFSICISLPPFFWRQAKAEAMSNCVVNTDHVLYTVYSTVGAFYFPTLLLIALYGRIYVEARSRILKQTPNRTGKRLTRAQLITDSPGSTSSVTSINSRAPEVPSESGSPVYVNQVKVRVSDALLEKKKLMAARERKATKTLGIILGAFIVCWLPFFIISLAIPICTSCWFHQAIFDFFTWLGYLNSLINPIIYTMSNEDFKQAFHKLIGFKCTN

The first assay concerns the target T1, 5-HT1D (Bos taurus, UniProt F1MGM3).
T1 construct: from tissue
Nature of the assay: 5-HT1D activity, method of R. E. Heuring and S. J. Peroutka. The class given is binding.
Conditions: not given
As for the experimental part:
The active compounds of the invention are evaluated as anti-migraine agents by testing the extent to which they mimic sumatriptan in contracting the dog isolated saphenous vein strip (P. P. A. Humphrey et al., Br. J. Pharmacol., 94, 1128 (1988)). This effect can be blocked by methiothepin, a known serotonin antagonist. Sumatriptan is known to be useful in the treatment of migraine and produces a selective increase in carotid vascular resistance in the anaesthetized dog. […] The active compounds are also evaluated using the method of R. E. Heuring and S. J. Peroutka (J. Neuroscience, 7, 894 (1987)).
As usually defined, the IC50 is the point on the concentration scale where inhibition reaches its midpoint. With `Cc1nc(-c2ccc3[nH]cc(C4=CCNCC4)c3c2)cs1` [Example 20, 4-[3-(1,2,5,6-Tetrahydropyrid-4-yl)indol-5-yl]-2-methylthiazole], the IC50 is at least 1000 nM. The compound `Cc1csc(Cc2ccc3[nH]cc(C4=CCNCC4)c3c2)n1` [Example 26, 2-[3-(1,2,5,6-Tetrahydropyrid-4-yl)indol-5-ylmethyl]-4-methylthiazole] showed an IC50 of at least 1000 nM.

The assay is the same for the next values; noted with them: method of Heuring and Peroutka, J. Neuroscience, 7, 894 (1987); read-out: IC50 (5-HT1D activity).
Consider `CN(C)CCc1c[nH]c2ccc(-c3nccs3)cc12` [Example 7, 2-[3-(N,N-Dimethylaminoethyl)indol-5-yl]thiazole], for which the IC50 was at least 1000 nM. On the same count and under the same terms, to `CN(C)CCc1c[nH]c2ccc(-c3nc(CNc4ccccc4)cs3)cc12` [Example 13, 2-[3-(N,N-Dimethylaminoethyl)-indol-5-yl]-4-(phenylaminomethyl)thiazole] belongs at least 1000 nM; to `CN(C)CCc1c[nH]c2ccc(-c3nc(COc4ccccc4)cs3)cc12` [Example 15A, 2-[3-(N,N-Dimethylaminoethyl)indol-5-yl]-4-(phenoxymethyl)thiazole], at least 1000 nM; to `CN(C)CCc1c[nH]c2ccc(-c3nc(CSc4ccccc4)cs3)cc12` [Example 15B, 2-[3-(N,N-Dimethylaminoethyl)indol-5-yl)-4-(thiophenoxymethyl)thiazole], at least 1000 nM. Take `CN1CCC(c2c[nH]c3ccc(-c4nc(CNc5ccccc5)cs4)cc23)CC1` [Example 28, 2-[3-(1-Methylpiperidin-4-yl)indol-5-yl]-4-(phenylaminomethyl)thiazole]: the IC50 was at least 1000 nM.

Source of the values: patent publication US5409941A, “5-heteroyl indole derivatives” (Pfizer Inc., priority 1993, dated 1995).
